25 molecules from patent US20230250096A1, “SUBSTITUTED PHENYL-1H-PYRROLO[2,3-c] PYRIDINE DERIVATIVES” (Janssen Pharmaceutica NV, priority 2021, published 2023) can be followed below.

The target of experiment [1] is T1, menin/MLL (terbium chelate-labeled menin, FITC-MBM1 peptide) (Homo sapiens, UniProt O00255, T541A).
T1 construct: Menin (a.a 1-610-6xhis tag, 2.3 mg/mL in 20 mM Hepes)
T1 sequence (O00255 with tags, fused parts or gaps T541A): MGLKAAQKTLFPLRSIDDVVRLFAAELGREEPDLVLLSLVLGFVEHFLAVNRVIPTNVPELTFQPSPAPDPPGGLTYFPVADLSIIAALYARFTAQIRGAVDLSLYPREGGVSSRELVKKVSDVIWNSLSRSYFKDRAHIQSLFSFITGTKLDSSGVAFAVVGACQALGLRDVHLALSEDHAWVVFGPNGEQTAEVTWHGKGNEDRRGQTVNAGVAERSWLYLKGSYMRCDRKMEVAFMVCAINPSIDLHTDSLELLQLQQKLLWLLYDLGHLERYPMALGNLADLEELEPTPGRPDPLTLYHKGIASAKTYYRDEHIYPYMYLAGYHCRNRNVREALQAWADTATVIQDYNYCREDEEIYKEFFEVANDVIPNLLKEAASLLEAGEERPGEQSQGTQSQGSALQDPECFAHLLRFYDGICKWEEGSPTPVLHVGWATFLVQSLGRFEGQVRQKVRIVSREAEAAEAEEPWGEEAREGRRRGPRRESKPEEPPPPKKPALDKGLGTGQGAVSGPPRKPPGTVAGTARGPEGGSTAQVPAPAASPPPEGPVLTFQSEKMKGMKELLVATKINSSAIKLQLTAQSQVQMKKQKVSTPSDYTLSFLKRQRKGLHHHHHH
In words: Menin/MLL homogenous time-resolved fluorescence (HTRF) assay. It counts as binding. Conditions: 30 min incubation. The protocol:
1) Menin/MLL Homogenous Time-Resolved Fluorescence (HTRF) Assay
To an untreated, white 384-well microtiter plate was added 40 nL 200× test compound in DMSO and 4 μL 2× terbium chelate-labeled menin (vide infra for preparation) in assay buffer (40 mM Tris HCl, pH 7.5, 50 mM NaCl. 1 mM DTT (dithiothreitol) and 0.05% Pluronic F-127). After incubation of test compound and terbium chelate-labeled menin for 30 min at ambient temperature, 4 μL 2×FITC-MBM1 peptide (FITC-β-alanine-[…]-NH2) (“FITC” means fluorescein isothiocyanate) in assay buffer was added, the microtiter plate centrifuged at 1000 rpm for 1 min and the assay mixtures incubated for 15 min at ambient temperature. The relative amount of menin FITC-MBM1 complex present in an assay mixture is determined by measuring the homogenous time-resolved fluorescence (HTRF) of the terbium/FITC donor/acceptor fluorphore pair using an EnVision microplate reader (ex. 337 nm/terbium em. 490 nm/FITC em. 520 nm) at ambient temperature. The degree of fluorescence resonance energy transfer (the HTRF value) is expressed as the ratio of the fluorescence emission intensities of the FITC and terbium fluorophores (F^em520 nm/F^em490 nm). The final concentrations of reagents in the binding assay are […] terbium chelate-labeled menin, 75 nM FITC-MBM1 peptide and 0.5% DMSO in assay buffer. Dose-response titrations of test compounds are conducted using an 11 point, four-fold serial dilution scheme, starting typically at 10 μM.
Compound potencies were determined by first calculating % inhibition at each compound concentration according to equation 1:
% inhibition=((HC−LC)−(HTRF^compound−LC))/(HC−LC))*100 (Eqn 1)
Where LC and HC are the HTRF values of the assay in the presence or absence of a saturating concentration of a compound that competes with FITC-MBM1 for binding to menin, and HTRF^compound is the measured HTRF value in the presence of the test compound. HC and LC HTRF values represent an average of at least 10 replicates per plate.
% inhibition=Bottom+(Top−Bottom)/(1+10^((log/C50−log[cmpd])*h)) (Eqn 2)
Where Bottom and Top are the lower and upper asymptotes of the dose-response curve, respectively, IC50 is the concentration of compound that yields 50% inhibition of signal and h is the Hill coefficient.
Preparation of Terbium cryptate labeling of Menin: Menin (a.a 1-610-6xhis tag, 2.3 mg/mL in 20 mM Hepes (2-[4-(2-Hydroxyethyl)-1-piperazinyl]ethane sulfonic acid), 80 mM NaCl, 5 mM DTT (Dithiothreitol), pH 7.5) was labeled with terbium cryptate as follows. 200 μg of Menin was buffer exchanged into 1×Hepes buffer. 6.67 μM Menin was incubated with 8-fold molar excess NHS (N-hydroxysuccinimide)-terbium cryptate for 40 minutes at room temperature. Half of the labeled protein was purified away from free label by running the reaction over a NAP5 column with elution buffer (0.1M Hepes, pH 7+0.1% BSA (bovine serum albumin)). The other half was eluted with 0.1 M phosphate buffered saline (PBS), pH7. 400 μl of eluent was collected for each, aliquoted and frozen at −80° C. The final concentration of terbium-labeled Menin protein was 115 μg/mL in Hepes buffer and 85 μg/mL in PBS buffer, respectively.
In general terms: TR-FRET usually uses a lanthanide donor and a delayed reading to cut background.

Experiment [2] deals with MEIS1 mRNA expression. As to the kind of experiment: MEIS1 mRNA expression assay (Quantigene Singleplex) in MOLM14 cells. Conditions: 48 hours incubation. It counts as cell-based, human. The protocol:
2b) MEIS1 mRNA Expression Assay
MEIS1 mRNA expression upon treatment of compound was examined by Quantigene Singleplex assay (Thermo Fisher Scientific). This technology allows for direct quantification of mRNA targets using probes hybridizing to defined target sequences of interest and the signal is detected using a Multimode plate reader Envision (PerkinElmer). The MOLM14 cell line was used for this experiment. Cells were plated in 96-well plates at 3,750 cells/well in the presence of increasing concentrations of compounds. After incubation of 48 hours with compounds, cells were lysed in lysis buffer and incubated for 45 minutes at 55° C. Cell lysates were mixed with human MEIS specific capture probe or human RPL28 (Ribosomal Protein L28) specific probe as a normalization control, as well as blocking probes. Cell lysates were then transferred to the custom assay hybridization plate (Thermo Fisher Scientific) and incubated for 18 to 22 hours at 55° C. Subsequently, plates were washed to remove unbound materials followed by sequential addition of preamplifiers, amplifiers, and label probe. Signals (═gene counts) were measured with a Multimode plate reader Envision. IC50S were calculated by dose-response modelling using appropriate software. For all non-housekeeper genes response equal counts corrected for background and relative expression. For each sample, each test gene signal (background subtracted) was divided by the normalization gene signal (RPL28: background subtracted). Fold changes were calculated by dividing the normalized values for the treated samples by the normalized values for the DMSO treated sample. Fold changes of each target gene were used for the calculation of IC50S.

In the case of `CN=[S@@](=O)(c1cc(F)ccc1-n1cc(C[C@@H]2CCN(CC3CCN(C(C)=O)CC3)C2)c2c(C)cncc21)C(C)C` (single isomer, unassigned) [Compound 128c], the IC50 (commonly the point on the concentration scale where inhibition reaches its midpoint) in experiment [1] was 1.01 nM; in experiment [2] (Homo sapiens, MOLM-14, 48 h), roughly 487 nM.
In the case of `Cc1cncc2c1c(C[C@@H]1CCN(CC3CCN(C(=O)C(C)(C)O)CC3)C1)cn2-c1ccc(F)cc1C(=O)N1CCCC12CC2` [Compound 340], the IC50 in experiment [1] was 0.034 nM; in experiment [2] (Homo sapiens, MOLM-14, 48 h) it was greater than 1000 nM.
Taken in the same sequence, the figures for `CC(=O)N1CCC(CN2CC[C@@H](Cc3cn(-c4ccc(F)cc4[S@]4(=O)=NCCC4)c4cncc(C)c34)C2)CC1` (single isomer, unassigned) [Compound 214b] were 11.7 nM and roughly 7280 nM.
In the same order, the values of `Cc1cncc2c1c(CC1CN(C3CCCNC(=O)C3)C1)cn2-c1ccc(F)cc1C(=O)N(C)C(C)C` (centres unmarked) [Compound 290] are 0.393 nM and 170 nM.
For `Cc1cncc2c1c(C[C@H]1CCN([C@H](C)C3CCOCC3)C1)cn2-c1ccc(F)cc1[S@@](=N)(=O)C(C)C` (single isomer, unassigned) [Compound 183a], the IC50 in experiment [1] was found to be 0.37 nM; in experiment [2] (Homo sapiens, MOLM-14, 48 h), 307 nM.
In the same order, the values of `Cc1cncc2c1c(CC1CN(CC3CCOCC3)C1)cn2-c1ccc(F)cc1C(=O)N1CCC12CCC2` [Compound 261] are 0.213 nM and 217 nM.
For the molecule `CC(=O)N1CCC(C)C(N2CC[C@@H](Cc3cn(-c4ccc(F)cc4C(=O)N(C)C(C)C)c4cncc(C)c34)C2)C1` (some centres unmarked) [Compound 242], the IC50 in experiment [1] was 0.811 nM; in experiment [2], greater than 1000 nM.
Consider `COCC[C@H](C1CCOCC1)N1CC[C@@H](Cc2cn(-c3ccc(F)cc3C(=O)N(C)C(C)C)c3cncc(C)c23)C1` (single isomer, unassigned) [Compound 252a], for which the IC50 was found to be 0.341 nM in experiment [1] and 69 nM in experiment [2] (Homo sapiens, MOLM-14, 48 h).
For the molecule `CC(=O)N1CCCC(N2CC[C@H](Cc3cn(-c4ccc(F)cc4C(=O)N(C)C(C)C)c4cncc(C)c34)C2)CC1` (mixture of isomers) [Compound 222], the IC50 was 0.103 nM in experiment [1] and 259 nM in experiment [2] (Homo sapiens, MOLM-14, 48 h).
As for `Cc1cncc2c1c(CC1CNC(CC3CCOCC3)C1)cn2-c1ccc(F)cc1C(=O)N(C)C(C)C` (single isomer, unassigned) [Compound 134d], the results for the IC50 in experiment [1] and in experiment [2] were 0.425 nM and greater than 1000 nM, respectively.
Regarding `COC(=O)N1CCC(CN2CC[C@@H](Cc3cn(-c4ccc(F)cc4C(=O)N(C[C@H](C)O)C(C)C)c4cncc(C)c34)C2)CC1` [Compound 335], the IC50 in experiment [1] was found to be 0.193 nM; in experiment [2] (Homo sapiens, MOLM-14, 48 h), 18 nM.
Taken in the same sequence, the figures for `Cc1cncc2c1c(CC1CCN(CC3CCN(C(=O)CC4CS(=O)(=O)C4)CC3)C1)cn2-c1ccc(F)cc1C(=O)N(C)C(C)C` (single isomer, unassigned) [Compound 106] were 0.039 nM and 104 nM.
Taken in the same sequence, the figures for `Cc1cncc2c1c(CC1CN(CC3(C)COC3)C1)cn2-c1ccc(F)cc1C(=O)N(C)C(C)C` [Compound 286] were 0.046 nM and 59 nM.
For the molecule `CC(=O)N[C@H]1CC[C@H](CN2CC(Cc3cn(-c4ccc(F)cc4C(=O)N(C)C(C)C)c4cncc(C)c34)C2)CC1` [Compound 118], the IC50 amounted to 0.139 nM in experiment [1] and 117 nM in experiment [2] (Homo sapiens, MOLM-14, 48 h).
Taken in the same sequence, the figures for `Cc1cncc2c1c(C[C@H]1CCN(CC3CCN(C(=O)C(C)C)CC3)C1)cn2-c1ccc(F)cc1C(=O)N(C)C(C)C` (single isomer, unassigned) [Compound 121] were 0.049 nM and 13 nM.
On to `Cc1cncc2c1c(C[C@@H]1CCN([C@H]3CCNC(=O)CC3)C1)cn2-c1ccc(F)cc1C(=O)N(C)C(C)C` (single isomer, unassigned) [Compound 139a], for which the IC50 in experiment [1] is 0.122 nM; in experiment [2] (Homo sapiens, MOLM-14, 48 h), roughly 810 nM.
In the same order, the values of `CC(=O)N1CCC([C@H](C)N2CC[C@H](Cc3cn(-c4ccc(F)cc4[S@](=N)(=O)C(C)C)c4cncc(C)c34)C2)CC1` (single isomer, unassigned) [Compound 232b] are 4.04 nM and greater than 1000 nM.
In the same order, the values of `CC(=O)N1CCC([C@@H](C)N2CC[C@@H](Cc3cn(-c4ccc(F)cc4[S@](=N)(=O)C(C)C)c4cncc(C)c34)C2)CC1` (single isomer, unassigned) [Compound 230a] are 0.053 nM and 77 nM.
In the same order, the values of `Cc1cncc2c1c(C[C@@H]1CCN(CC3CCN(C(=O)C(C)C)CC3)C1)cn2-c1ccc(F)cc1C(=O)N(CCO)C(C)C` [Compound 329] are 0.152 nM and 13 nM.
For `CCN(C(=O)c1cc(F)ccc1-n1cc(C[C@@H]2CCN(CC3CCOCC3)C2)c2c(C)cncc21)C(C)C` [Compound 257], the IC50 in experiment [1] turned out to be 0.031 nM; in experiment [2] (Homo sapiens, MOLM-14, 48 h), 7 nM.
For the molecule `Cc1cncc2c1c(C[C@@H]1CCN([C@@H](C)C3CCOCC3)C1)cn2-c1ccc(F)cc1[S@](=N)(=O)C(C)C` (single isomer, unassigned) [Compound 180b], the IC50 was 7.29 nM in experiment [1] and roughly 2810 nM in experiment [2] (Homo sapiens, MOLM-14, 48 h).
Taken in the same sequence, the figures for `CCC(CCCN1C[C@H]2CN(C(C)=O)C[C@@H]2C1)N1CC[C@H](Cc2cn(-c3ccc(F)cc3C(=O)N(C)C(C)C)c3cncc(C)c23)C1` (mixture of isomers) [Compound 17] were 0.031 nM and 48 nM.
For `Cc1cncc2c1c(C[C@@H]1CCN(CC3CCN(C(=O)C(C)(C)O)CC3)C1)cn2-c1ccc(F)cc1C(=O)N1[C@H](C)CC[C@H]1C` [Compound 343], the half-maximal inhibitory concentration (IC50) came out at 0.045 nM in experiment [1] and 13 nM in experiment [2] (Homo sapiens, MOLM-14, 48 h).
Turning to `CC(=O)N1CCC(N2CC(Cc3cn(-c4ccc(F)cc4C(=O)N(C)C(C)C)c4cncc(C)c34)C2)C[C@H]1C` (single isomer, unassigned) [Compound 292b], the IC50 in experiment [1] was 0.562 nM; in experiment [2] (Homo sapiens, MOLM-14, 48 h), roughly 586 nM.
Take `CC(=O)N1CCC(CN2CC[C@@H](Cc3cn(-c4ccc(F)cc4C(=O)N4CCCCC4C)c4cncc(C)c34)C2)CC1` (some centres unmarked) [Compound 317]: the IC50 turned out to be 0.291 nM in experiment [1] and 65 nM in experiment [2] (Homo sapiens, MOLM-14, 48 h).
